{"source": "paper PMC2680982", "about": "“The cAMP-Dependent Protein Kinase Inhibitor H-89 Attenuates the Bioluminescence Signal Produced by Renilla Luciferase” (PLoS ONE, 2009)", "target": "T1, RLuc8 (Renilla luciferase variant) (Renilla reniformis, UniProt P27652, A55T/C124A/S130A/K136R/A143M/M185V/M253L/S287L)", "T1 construct": "RLuc8 in pRSETB, purified on Ni-NTA from E. coli", "T1 sequence (P27652 1-311 A55T/C124A/S130A/K136R/A143M/M185V/M253L/S287L)": "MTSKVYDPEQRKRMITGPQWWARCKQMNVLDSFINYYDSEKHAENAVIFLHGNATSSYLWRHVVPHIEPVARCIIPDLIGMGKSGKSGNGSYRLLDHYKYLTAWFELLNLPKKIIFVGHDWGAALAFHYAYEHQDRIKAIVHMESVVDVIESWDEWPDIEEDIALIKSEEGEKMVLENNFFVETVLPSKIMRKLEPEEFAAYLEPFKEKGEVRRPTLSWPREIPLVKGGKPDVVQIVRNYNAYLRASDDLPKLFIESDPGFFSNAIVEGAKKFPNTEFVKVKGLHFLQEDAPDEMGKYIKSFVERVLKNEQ", "assay": "bioluminescence inhibition of […] purified RLuc8 with coelenterazine-h titration", "assay_type": "biochemical"}
{"molecule": "O=S(=O)(NCCNC/C=C/c1ccc(Br)cc1)c1cccc2cnccc12", "note": "[H-89, N-[2-(p-bromocinnamylamino)ethyl]-5-isoquinolinesulfonamide]", "values": [{"measurement": "IC50", "result": 21, "unit": "µM"}]}
